The supplement of paper PMC13380429

What was measured:
Settings in all cases: 72 h
HepG2 [1] = assay: cell viability relative to DMSO; higher = less toxic
U2OS [2] = assay: as above
Calu-3 [3] = assay: as above
Caco-2 [4] = assay: as above
Vero E6 [5] = assay: as above
HepG2 [6] = assay: drug sensitivity score (DSS) for viability; higher = more toxic; extreme values may be limits of the assay
U2OS [7] = assay: as above
Calu-3 [8] = assay: as above
Caco-2 [9] = assay: as above
Vero E6 [10] = assay: as above
HepG2 [11] = assay: relative viability EC50 (midpoint between 100% and the lowest measured viability); higher = less toxic
U2OS [12] = assay: as above
Calu-3 [13] = assay: as above
Caco-2 [14] = assay: as above

| SMILES | cell viability (HepG2 [1]; 1 nM) [%] | cell viability (HepG2 [1]; 10 nM) [%] | cell viability (HepG2 [1]; 100 nM) [%] | cell viability (HepG2 [1]; 1000 nM) [%] | cell viability (HepG2 [1]; 10000 nM) [%] | cell viability (U2OS [2]; 1 nM) [%] | cell viability (U2OS [2]; 10 nM) [%] | cell viability (U2OS [2]; 100 nM) [%] | cell viability (U2OS [2]; 1000 nM) [%] | cell viability (U2OS [2]; 10000 nM) [%] | cell viability (Calu-3 [3]; 1 nM) [%] | cell viability (Calu-3 [3]; 10 nM) [%] | cell viability (Calu-3 [3]; 100 nM) [%] | cell viability (Calu-3 [3]; 1000 nM) [%] | cell viability (Calu-3 [3]; 10000 nM) [%] | cell viability (Caco-2 [4]; 1 nM) [%] | cell viability (Caco-2 [4]; 10 nM) [%] | cell viability (Caco-2 [4]; 100 nM) [%] | cell viability (Caco-2 [4]; 1000 nM) [%] | cell viability (Caco-2 [4]; 10000 nM) [%] | cell viability (Vero E6 [5]; 1 nM) [%] | cell viability (Vero E6 [5]; 10 nM) [%] | cell viability (Vero E6 [5]; 100 nM) [%] | cell viability (Vero E6 [5]; 1000 nM) [%] | cell viability (Vero E6 [5]; 10000 nM) [%] | drug sensitivity score (HepG2 [6]) | drug sensitivity score (U2OS [7]) | drug sensitivity score (Calu-3 [8]) | drug sensitivity score (Caco-2 [9]) | drug sensitivity score (Vero E6 [10]) | relative viability EC50 (HepG2 [11]) [µM] | relative viability EC50 (U2OS [12]) [µM] | relative viability EC50 (Calu-3 [13]) [µM] | relative viability EC50 (Caco-2 [14]) [µM] |
| --- | --- | --- | --- | --- | --- | --- | --- | --- | --- | --- | --- | --- | --- | --- | --- | --- | --- | --- | --- | --- | --- | --- | --- | --- | --- | --- | --- | --- | --- | --- | --- | --- | --- | --- |
| CNC(=O)c1cc(Oc2ccc(NC(=O)Nc3ccc(Cl)c(C(F)(F)F)c3)c(F)c2)ccn1 [regorafenib] | 102 | 106 | 94.4 | 59.8 | 16.5 | 96.9 | 103 | 100 | 99.8 | 54.5 | 102 | 98.8 | 105 | 104 | 74.2 | 100 | 105 | 97 | 108 | 66.3 | 94.7 | 98.9 | 104 | 102 | 60.6 | 9.3 | 2.4 | 0.8 | 1.2 | 1.8 | 1.03 | – | – | – |
| CCCCCCCCCC(=O)OC1(c2ccc(Cl)cc2)CCN(CCCC(=O)c2ccc(F)cc2)CC1 [haloperidol-decanoate] | 112 | 108 | 106 | 112 | 97.1 | 107 | 101 | 104 | 101 | 99.2 | 103 | 105 | 112 | 99.8 | 114 | 104 | 104 | 104 | 93.5 | 105 | – | – | – | – | – | 0 | 0 | 0 | 0 | – | > 10 | > 10 | > 10 | > 10 |
| Cc1ccc(-c2nc3ccc(C)cn3c2CC(=O)N(C)C)cc1 [ZOLPIDEM] | 110 | 97.7 | 101 | 97.1 | 99.6 | 101 | 104 | 101 | 100 | 96.2 | 102 | 109 | 97 | 95.9 | 105 | 95.5 | 97 | 117 | 95.1 | 98.1 | – | – | – | – | – | 0 | 0 | 0 | 0 | – | > 10 | > 10 | > 10 | > 10 |
| CN[C@@H](C)C(=O)N[C@H]1CCCC[C@H]2CC[C@@H](C(=O)N[C@@H](c3ccccc3)c3cn(CCCCc4ccc(CCCCn5cc([C@@H](NC(=O)[C@@H]6CC[C@@H]7CCCC[C@H](NC(=O)[C@H](C)NC)C(=O)N76)c6ccccc6)nn5)cc4)nn3)N2C1=O [SM-164] | 106 | 104 | 98.6 | 96.9 | 90.1 | 99.5 | 108 | 102 | 98.8 | 99.7 | 103 | 90 | 99 | 89.2 | 81.3 | 105 | 109 | 85.5 | 84 | 98.4 | – | – | – | – | – | 0 | 0 | 0.9 | 2.7 | – | > 10 | > 10 | > 10 | > 10 |
| Nc1nc(N)nc(-c2cc(Cl)ccc2Cl)n1 [irsogladine] | 89.4 | 93.9 | 94.6 | 93.5 | 105 | 105 | 97.3 | 101 | 100 | 99.2 | 112 | 93.7 | 91.5 | 110 | 99.1 | 101 | 99 | 101 | 102 | 108 | – | – | – | – | – | 0 | 0 | 0 | 0 | – | > 10 | > 10 | > 10 | > 10 |
| CC#CC(=O)N1CC[C@@H](n2c(=O)n(-c3ccc(Oc4ccccc4)cc3)c3c(N)ncnc32)C1 [ONO-4059] | 96.7 | 99.3 | 89.6 | 102 | 101 | 101 | 91.4 | 103 | 92.5 | 93.6 | 91.2 | 96.7 | 73.6 | 36 | 41.3 | 97.6 | 87 | 93.9 | 73.8 | 73.7 | 89.5 | 97.4 | 90.7 | 80.2 | 68.2 | 0 | 0 | 14.8 | 4.4 | 3.9 | > 10 | > 10 | 0.121 | – |
| C1Cc2[nH]nc(-c3nn[nH]n3)c2C1 [MK-0354] | 102 | 98 | 95.6 | 105 | 95.4 | 101 | 96.2 | 103 | 96.7 | 103 | 99.8 | 92.7 | 91.6 | 112 | 101 | 97 | 91.1 | 95.2 | 88.9 | 102 | – | – | – | – | – | 0 | 0 | 0 | 0 | – | > 10 | > 10 | > 10 | > 10 |
| c1ccc(N2CCN(Cc3nc4ccccc4[nH]3)CC2)nc1 [ABT-724] | 92.4 | 100 | 99.2 | 95.7 | 106 | 98.8 | 103 | 98.7 | 104 | 98.6 | 93.5 | 105 | 101 | 104 | 114 | 91.7 | 99.8 | 97.8 | 100 | 94 | – | – | – | – | – | 0 | 0 | 0 | 0 | – | > 10 | > 10 | > 10 | > 10 |
| Cn1c(=O)c2c(ncn2C)n(C)c1=O [caffeine] | – | – | – | – | – | – | – | – | – | – | – | – | – | – | – | – | – | – | – | – | – | – | – | – | – | 0 | 0 | 0 | – | 0 | – | – | – | – |
| CN1C[C@@H]2CN(c3ccc(-c4ccccc4)nn3)C[C@@H]2C1 | 104 | 97.3 | 110 | 98.9 | 96 | – | – | – | – | – | 90.3 | 100 | 97.6 | 98.6 | 91.6 | 105 | 104 | 101 | 103 | 99.5 | – | – | – | – | – | 0 | – | 0 | 0 | – | > 10 | – | > 10 | > 10 |
| COc1cc2c(NC3CCN(CC4CCCCC4)CC3)nc(N3CCCN(C(C)C)CC3)nc2cc1OCCCN1CCCCC1 [UNC0631] | 104 | 111 | 100 | 96.3 | 0.2 | 102 | 102 | 102 | 98.7 | 74.2 | 103 | 97.2 | 104 | 103 | 18.9 | 97.7 | 104 | 103 | 84.4 | 83.2 | 93.4 | 97.1 | 88.6 | 93 | 50.9 | 6.1 | 1.2 | 4.3 | 1.6 | 3.8 | 2.89 | – | 3.36 | > 10 |
| O=S(=O)(F)Cc1ccccc1 [phenylmethylsulfonyl-fluoride] | 109 | 114 | 97.8 | 111 | 96.7 | 106 | 99.8 | 104 | 102 | 101 | 105 | 101 | 103 | 98.6 | 102 | 102 | 95.6 | 103 | 99.7 | 99.2 | – | – | – | – | – | 0 | 0 | 0 | 0 | – | > 10 | > 10 | > 10 | > 10 |
| O=C(O)c1cc(=O)c2ccccc2o1 [chromocarb] | 114 | 106 | 114 | 98.5 | 110 | – | – | – | – | – | 81.8 | 93.2 | 86.8 | 103 | 93.7 | 99.8 | 109 | 104 | 110 | 108 | – | – | – | – | – | 0 | – | 0 | 0 | – | > 10 | – | > 10 | > 10 |
